From publication PMC7587356, “High-Throughput Screening for Inhibitors of the SARS-CoV-2 Protease Using a FRET-Biosensor” (Molecules, 2020) come the findings set out here.

Counter-ions that a name gives are not always drawn. Like-named read-outs stand apart in the source and are kept apart here.

The experiment addresses SARS-CoV-2 3CLpro (Severe acute respiratory syndrome coronavirus 2, UniProt P0DTD1). The experiment can be described thus: biochemical. It is filed as biochemical. The arrangement: Replicate_1 / Replicate_2 / mean / mean (LOPAC_screen_w_protease): unit not given here. As to conditions: for inhibition at 5 µM: 4 h.
Where [1] appears, read: LOPAC1280 primary screen with protease, 5 µM compound, mean of two replicates.
Setting [2] is: LOPAC1280 primary screen with protease, 5 µM compound, replicate 1.
[3] abbreviates: LOPAC1280 primary screen with protease, 5 µM compound, replicate 2.
[4] abbreviates: sheet LOPAC_screen_w_protease, primary screen with protease, 5 µM, mean of two replicates.
Setting [5] is: sheet LOPAC_screen_w_protease, primary screen with protease, 5 µM, replicate 1.
[6] abbreviates: sheet LOPAC_screen_w_protease, primary screen with protease, 5 µM, replicate 2.
Setting [7] is: sheet LOPAC_screen_w_protease, LOPAC1280 primary screen with protease, 5 µM compound, mean of the two replicates, read-out: mean.
Setting [8] is: sheet LOPAC_screen_w_protease, LOPAC1280 primary screen with protease, 5 µM compound, replicate 1, read-out: Replicate_1.
Setting [9] is: sheet LOPAC_screen_w_protease, LOPAC1280 primary screen with protease, 5 µM compound, replicate 2, read-out: Replicate_2.
The mark [10] stands for this setting: sheet LOPAC_screen_w_protease, primary screen with protease, mean of two replicates.
Where [11] appears, read: sheet LOPAC_screen_w_protease, primary screen with protease, replicate 1.
[12] abbreviates: sheet LOPAC_screen_w_protease, primary screen with protease, replicate 2.
[13] abbreviates: sheet LOPAC_screen_w_protease, primary screen with protease, 5 µM, replicate 1, read-out: Replicate_1.
Where [14] appears, read: sheet LOPAC_screen_w_protease, primary screen with protease, 5 µM, replicate 2, read-out: Replicate_2.
The mark [15] stands for this setting: LOPAC1280 primary screen with protease, 5 µM compound, replicate 1, read-out: Replicate_1 (LOPAC_screen_w_protease).
[16] abbreviates: LOPAC1280 primary screen with protease, 5 µM compound, replicate 2, read-out: Replicate_2 (LOPAC_screen_w_protease).
The mark [17] stands for this setting: sheet LOPAC_screen_w_protease, LOPAC1280 primary screen with protease, 5 µM compound, mean of the two replicates.
Where [18] appears, read: sheet LOPAC_screen_w_protease, LOPAC1280 primary screen with protease, 5 µM compound, replicate 1.
Where [19] appears, read: sheet LOPAC_screen_w_protease, LOPAC1280 primary screen with protease, 5 µM compound, replicate 2.
[20] abbreviates: sheet LOPAC_screen_w_protease, primary screen with protease, mean of two replicates, read-out: mean.
The mark [21] stands for this setting: sheet LOPAC_screen_w_protease, primary screen with protease, replicate 1, read-out: Replicate_1.
The mark [22] stands for this setting: sheet LOPAC_screen_w_protease, primary screen with protease, replicate 2, read-out: Replicate_2.
Where [23] appears, read: LOPAC1280 primary screen with protease, 5 µM compound, mean of the two replicates.
Setting [24] is: sheet LOPAC_screen_w_protease, primary screen with protease, compound at 5 µM, mean of two replicates, read-out: mean.
The mark [25] stands for this setting: sheet LOPAC_screen_w_protease, primary screen with protease, compound at 5 µM, replicate 1, read-out: Replicate_1.
Where [26] appears, read: sheet LOPAC_screen_w_protease, primary screen with protease, compound at 5 µM, replicate 2, read-out: Replicate_2.

For `Oc1ccc2c3c1O[C@H]1c4[nH]c5ccccc5c4C[C@@]4(O)[C@@H](C2)N(CC2CC2)CC[C@]314` [Naltrindole hydrochloride], the inhibition at 5 µM reads like this: (read-out: Replicate_1) 3.59%; (read-out: Replicate_2) 2.54%; (read-out: mean) 3.06%.
As to `CCCCCCCCCCCCCCCCCCNC(=O)OCC(COP(=O)([O-])OCC[n+]1ccsc1)OC` (centres unmarked) [CV-3988], the “mean (LOPAC_screen_w_protease)” value under setting [1] is 1.326. Further, the “Replicate_1 (LOPAC_screen_w_protease)” value under setting [2] is on record as -0.07699. Besides, the “Replicate_2 (LOPAC_screen_w_protease)” value under setting [3] is reported as 2.73.
Consider `Cc1c(CC(C)(C)C(=O)O)n(Cc2ccc(Cl)cc2)c2ccc(F)cc12` [L-655,240], for which, under setting [1], the “mean (LOPAC_screen_w_protease)” value is reported as 1.677. Moreover, the “Replicate_1 (LOPAC_screen_w_protease)” value under setting [2] is on record as 2.414. For the same compound, the “Replicate_2 (LOPAC_screen_w_protease)” value under setting [3] came to 0.9392.
For the compound `CC(C)(C)NC[C@H](O)COc1nsnc1N1CCOCC1.O=C(O)/C=C\C(=O)O` [S(-)-Timolol maleate], the mean under setting [4] was 0.01613. Under setting [5], this compound returned a Replicate_1 of 1.756. In addition, the Replicate_2 under setting [6] is reported as -1.724.
`Cc1cc(C(C)(C)C)c(O)c(C)c1CC1=NCCN1` [Oxymetazoline hydrochloride]: the inhibition at 5 µM came to 5.36% under setting [7], 4.63% under setting [8] and 6.09% under setting [9].
In turn, `Cl.O=C(OC1CCN(CCCl)CC1)C(c1ccccc1)c1ccccc1` returned a mean under setting [10] of 2.3143. The compound further showed a Replicate_1 under setting [11] of 3.423. This compound also returned a Replicate_2 under setting [12] of 1.205.
As for `CC(NCCc1ccc(O)cc1)C(O)c1ccc(O)cc1` (centres unmarked) [Ritodrine hydrochloride], the inhibition at 5 µM (sheet LOPAC_screen_w_protease, primary screen with protease, 5 µM, mean of two replicates, read-out: mean) is -0.392%; the inhibition at 5 µM under setting [13] was -0.659%; the inhibition at 5 µM under setting [14] was -0.126%.
Regarding `O=C1NC(c2cccc([N+](=O)[O-])c2)=CCN1c1ccccc1O` [Icilin], the inhibition at 5 µM came to 3.88% (sheet LOPAC_screen_w_protease, primary screen of LOPAC1280 at 5 µM with protease, mean of the two replicates, read-out: mean); 4.52% (sheet LOPAC_screen_w_protease, primary screen of LOPAC1280 at 5 µM with protease, replicate 1, read-out: Replicate_1); 3.25% (sheet LOPAC_screen_w_protease, primary screen of LOPAC1280 at 5 µM with protease, replicate 2, read-out: Replicate_2).
Consider `CCN(CC)CCOCCOC(=O)C1(c2ccccc2)CCCC1` [Carbetapentane citrate], for which the inhibition at 5 µM under setting [15] was 2.35% and the inhibition at 5 µM under setting [16] stood at 1.05%. Under setting [1], the “mean (LOPAC_screen_w_protease)” value came to 1.698.
As for `CN1C2CCC1CC(NC(=O)c1nn(C)c3ccccc13)C2.O=C(O)/C=C\C(=O)O` (centres unmarked) [LY-278,584 maleate], under setting [17], the mean is reported as 4.776. In addition, the Replicate_1 under setting [18] came to 3.942. Moreover, the Replicate_2 under setting [19] is recorded as 5.61.
`Cc1ccc(O)c(N=Nc2ccccc2)n1` [SIB 1757] had a mean under setting [10] of 2.268. This compound also had a Replicate_1 under setting [11] of 3.235. This compound also showed a Replicate_2 under setting [12] of 1.301.
Turning to `COc1ccc2[nH]cc(CCNC(C)=O)c2c1` [Melatonin], the inhibition at 5 µM was 2.28% under setting [20], 3.18% under setting [21] and 1.38% under setting [22].
For the compound `Br.CCCN(CCC)[C@@H]1CCc2cccc(O)c2C1` [R-(+)-8-Hydroxy-DPAT hydrobromide], under setting [4], the mean is -0.6201. Under setting [5], this compound gave a Replicate_1 of 2.2019. In addition, the Replicate_2 under setting [6] is given as -3.442.
Under setting [10], `CN1C(=O)CC[C@H]1c1cccnc1` [(-)-Cotinine] displayed a mean of 2.4459. For the same compound, the Replicate_1 under setting [11] was 2.442. Further, under setting [12], the Replicate_2 is recorded as 2.45.
Take `NCCCCCC(=O)O` [6-Aminohexanoic acid]: the inhibition at 5 µM reads like this: under setting [15], 2.45%; under setting [16], 1.78%. Moreover, under setting [23], the “mean (LOPAC_screen_w_protease)” value is given as 2.116.
The like results for `O=C(O)C1CCNCC1` [Isonipecotic acid] were, in that order, 4.55%, -0.611% and 1.97.
For `CCCCCCCCCCC/C=C\C(C)(C)/C=C\CCCC(=O)O` [7,7-Dimethyl-(5Z,8Z)-eicosadienoic acid], the mean under setting [10] came out at 2.303. Under setting [11], this compound registered a Replicate_1 of 4.092. This compound also displayed a Replicate_2 under setting [12] of 0.5145.
Take `CCCC1O[C@@H]2C[C@H]3[C@@H]4CCC5=CC(=O)C=C[C@]5(C)[C@H]4[C@@H](O)C[C@]3(C)[C@]2(C(=O)CO)O1` (some centres unmarked) [Budesonide]: the inhibition at 5 µM under setting [24] was 3.01%, the inhibition at 5 µM under setting [25] worked out at 1.81% and the inhibition at 5 µM under setting [26] was determined as 4.21%.
Take `CC(=O)Nc1nnc(S(N)(=O)=O)s1` [Acetazolamide]: the inhibition at 5 µM by setting is: under setting [13], 0.216%; under setting [14], -0.714%.
The compound `O=C(O)CN(CCN(CC(=O)O)CC(=O)O)CCN(CC(=O)O)CC(=O)O` [Diethylenetriaminepentaacetic acid] registered a mean (sheet LOPAC_screen_w_protease, primary screen of LOPAC1280 at 5 µM with protease, mean of the two replicates) of 3.2. The compound also registered a Replicate_1 (sheet LOPAC_screen_w_protease, primary screen of LOPAC1280 at 5 µM with protease, replicate 1) of 5.3521. Further, the Replicate_2 (sheet LOPAC_screen_w_protease, primary screen of LOPAC1280 at 5 µM with protease, replicate 2) is given as 1.048.
On to `C[C@@]12C(=O)OC(=O)[C@]1(C)[C@H]1CC[C@@H]2O1` [Cantharidin], for which the inhibition at 5 µM runs as follows: (read-out: Replicate_1) 1.95%; (read-out: Replicate_2) 0.0268%; (read-out: mean) 0.988%.
As to `CCN(CC)c1ncnc2c1ncn2[C@@H]1O[C@H](COP(=O)([O-])OP(=O)([O-])C(Br)(Br)P(=O)([O-])O)[C@@H](O)[C@H]1O.[Na+].[Na+].[Na+]` [ARL 67156 trisodium salt], the mean (sheet LOPAC_screen_w_protease, primary screen with protease, compound at 5 µM, mean of two replicates) is reported as 2.893. This compound also came in with a Replicate_1 (sheet LOPAC_screen_w_protease, primary screen with protease, compound at 5 µM, replicate 1) of 2.692. This compound showed a Replicate_2 (sheet LOPAC_screen_w_protease, primary screen with protease, compound at 5 µM, replicate 2) of 3.094.
As for `C[N+]1(C)[C@@H]2C[C@@H](OC(=O)[C@H](CO)c3ccccc3)C[C@H]1[C@@H]1O[C@@H]12` [(-)-Scopolamine methyl bromide], the inhibition at 5 µM (sheet LOPAC_screen_w_protease, LOPAC1280 primary screen at 5 µM, with protease, mean of two replicates, read-out: mean) is -1.17%; the inhibition at 5 µM (sheet LOPAC_screen_w_protease, LOPAC1280 primary screen at 5 µM, with protease, replicate 1, read-out: Replicate_1) worked out at 0.833%; the inhibition at 5 µM (sheet LOPAC_screen_w_protease, LOPAC1280 primary screen at 5 µM, with protease, replicate 2, read-out: Replicate_2) was -3.16%.
For the compound `CC#C[C@]1(O)CC[C@H]2[C@@H]3CCC4=CC(=O)CCC4=C3[C@@H](c3ccc(N(C)C)cc3)C[C@@]21C` [Mifepristone], the inhibition at 5 µM by setting is: under setting [7], 4.62%; under setting [8], 3.53%; under setting [9], 5.7%.
Consider `CCn1cnc2c(Nc3cccc(Cl)c3)nc(N[C@@H]3CCCC[C@@H]3N)nc21.Cl` [CGP-74514A hydrochloride], for which, where the note is “sheet LOPAC_screen_w_protease, LOPAC1280 primary screen at 5 µM, with protease, mean of the two replicates”, the mean amounted to 0.7839. Besides, the Replicate_1 (sheet LOPAC_screen_w_protease, LOPAC1280 primary screen at 5 µM, with protease, replicate 1) is given as 2.043. The compound also gave a Replicate_2 (sheet LOPAC_screen_w_protease, LOPAC1280 primary screen at 5 µM, with protease, replicate 2) of -0.4753.
Consider `CC(COc1ccccc1)N(CCCl)Cc1ccccc1` (centres unmarked) [Phenoxybenzamine hydrochloride], for which the inhibition at 5 µM was 4.33% under setting [7], 4.24% under setting [8] and 4.41% under setting [9].
In the case of `CN1CCN(C2Cc3ccccc3Sc3ccc(Cl)cc32)CC1.O=C(O)/C=C\C(=O)O` (racemic) [(±)-Octoclothepin maleate], the mean under setting [17] came out at 4.928. The compound further displayed a Replicate_1 under setting [18] of 3.609. Under setting [19], this compound yielded a Replicate_2 of 6.247.
For the compound `OC[C@H]1O[C@@H](n2cnc3c(NC4CCCC4)ncnc32)[C@H](O)[C@@H]1O` [N6-Cyclopentyladenosine], the inhibition at 5 µM under setting [20] came to 2.13%, the inhibition at 5 µM under setting [21] was found to be 1.59% and the inhibition at 5 µM under setting [22] is 2.67%.
Regarding `N[C@H]1CON=C1O` [L-Cycloserine], the inhibition at 5 µM was 3.14% under setting [24], 0.423% under setting [25] and 5.86% under setting [26].
